Experimental findings from patent publication US9861703B2 (Jinan Platinum Pharmatech Co. Ltd., priority 2013, dated 2018) are described below.

Counter-ions that a name gives are not always drawn.

Data set [1] addresses T1, Aminopeptidase N (Sus scrofa, UniProt P15145).
T1 construct: purchased Sigma
T1 sequence (P15145 1-963): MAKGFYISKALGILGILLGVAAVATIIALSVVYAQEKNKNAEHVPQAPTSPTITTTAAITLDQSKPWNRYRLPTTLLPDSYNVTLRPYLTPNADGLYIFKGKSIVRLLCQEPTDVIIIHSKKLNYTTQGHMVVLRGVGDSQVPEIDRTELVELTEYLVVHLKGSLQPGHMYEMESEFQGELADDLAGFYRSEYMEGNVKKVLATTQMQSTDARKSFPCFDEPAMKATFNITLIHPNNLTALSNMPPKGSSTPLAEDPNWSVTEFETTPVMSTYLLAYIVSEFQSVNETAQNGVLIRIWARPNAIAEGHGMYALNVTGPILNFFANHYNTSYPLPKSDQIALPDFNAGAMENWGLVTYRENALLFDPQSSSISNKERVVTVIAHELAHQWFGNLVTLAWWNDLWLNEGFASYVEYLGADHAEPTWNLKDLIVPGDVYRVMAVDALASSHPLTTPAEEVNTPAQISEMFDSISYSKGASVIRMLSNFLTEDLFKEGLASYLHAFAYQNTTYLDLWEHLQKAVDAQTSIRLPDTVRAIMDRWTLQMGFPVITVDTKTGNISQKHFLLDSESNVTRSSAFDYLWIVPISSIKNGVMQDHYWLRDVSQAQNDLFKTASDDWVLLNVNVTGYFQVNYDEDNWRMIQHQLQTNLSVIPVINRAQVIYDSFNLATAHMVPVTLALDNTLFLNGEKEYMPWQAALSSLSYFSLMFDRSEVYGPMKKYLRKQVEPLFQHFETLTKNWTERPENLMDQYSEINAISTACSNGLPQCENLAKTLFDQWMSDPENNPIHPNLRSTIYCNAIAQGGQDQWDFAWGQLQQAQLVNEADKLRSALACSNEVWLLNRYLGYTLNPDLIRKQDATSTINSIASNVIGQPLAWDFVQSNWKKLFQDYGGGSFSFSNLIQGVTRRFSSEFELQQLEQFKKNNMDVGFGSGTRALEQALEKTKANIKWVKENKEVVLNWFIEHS
As to the kind of experiment: Inhibition activity against enzyme in vitro (aminopeptidase N, L-Leu-p-nitroanilide substrate). It is filed as biochemical. The conditions noted are these: for IC50: 37° C., 0.5 h, absorbance 405 nm, PBS pH 7.2, read-out: IC50(μM) APN. The method, then: Aminopeptidase N and L-Leu-p-nitroanilide as substrate were purchased from Sigma cooperation.
Preparation of Buffer Solution: 12.89 g Na2HPO4.12H2O and 2.18 g NaH2PO4.2H2O were dissolved in a 1000 mL volumetric flask, then the mixture was diluted to 1000 mL with fresh distilled water to obtain 50 mM Phosphate Buffer solution (PBS, pH 7.2), which was kept at room temperature to spare.
Aminopeptidase N was dissolved in the buffer solution to obtain 0.1 IU/mL solution.
The substrate was dissolved in DMSO to obtain a […] solution, which was kept in refrigerator to spare.
The aminopeptidase N solution 10 μL, the substrate solution 5 μL and compound with different concentration 40 μL were added into a 96-well cell plate, and then adjusted to 200 μL with phosphate buffer saline solution (pH 7.2). […] And the substrate solution 5 μL of blank group was adjusted to 200 μL with buffer solution. The mixture was incubated at 37° C. for 0.5 h, and absorbance was then determined at 405 nm wavelength Inhibitory ratio can be calculated as follows: […]
According to concentration of compound and corresponding inhibitory ratio, the IC50 value was calculated by using a fitting curve of Origin 7.5 software.

The test system of data set [2] is H22 tumor cells. As to the kind of experiment: Activities of compounds in H22 tumor cells bearing Kunming mice models (Example 34). The note with it: intravenous injection, 58.3 mg/kg/d (0.1 mmol/kg/d).
Procedure: The ascites was extracted from H22 tumour bearing mice with well growth, followed by adding sterile PBS to dilute the ascites to a concentration of 8.5×10^7 cells/mL. 100 uL of the cells solution was suck up by a 1 mL sterile injector to inoculate into right oxter of mice. After 3 days, the mice were weighted and randomized to several groups (almost 8 mice per group, and a bit more in control group). These mice were administrated a predetermined dosage by intravenous or oral gavage with two days off when having administrated for 5 days until two cycles one of which had 7 days. The body weight of mouse was recorded at the beginning and ending of every cycle,
After being administrated for two cycles, the mice were weighted and recorded, then sacrificed by cervical dislocation to get lung, liver and spleen weighted respectively.
Overall difference was calculated by the function of one-way analysis of variance (One-Way ANOVA) in Origin 7.5 software; and t-test was used for pair-comparison between drug administrated group and blank group, and the inhibitory ratio of drug in each group was calculated based on the following equation: inhibitory ratio (100%)=(mean tumor weight of control group−mean tumor weight of drug administrated group)/mean tumor weight of control group×100.
For data set [3], the system named is human ovarian cancer cell line 3-AO. As to the kind of experiment: MTT proliferation inhibition, 3-AO. It is filed as cell-based. The note with it: 48 h. As for the experimental part: (§1) Human leukemia cell line K562, clear-cell ovarian carcinoma cell line ES-2, human prostate cancer cell line PC-3, human breast cancer cell line MCF-7, cell line Hela, human liver cancer cell line H7402 and human ovarian cancer cell line 3-AO were transferred into a culture flask and were cultured in a medium at 37° C. in a 5% CO2 and saturation humidity. One bottle of cells in logarithmic growth phase was picked out and was blew and beaten to be uniform with a pipette, then took some cell suspension solution to prepare blood counting plate smear to count cells under inverted microscope, and then adjusted the cell number to be 1×10^5/mL by adding some culture medium. Cells were seeded on a 96-well plate on which also drug tests performed. Blank control group, negative control group, positive control group and drug test group were established on the plate while the surrounding wells of the plate were not used (but filled with sterile PBS), wherein the blank control groups were prepared by addition of culture medium 150 μL per well, the negative control groups were prepared by addition of cell suspension solution 100 μL per well and culture medium 50 μL per well, the positive control groups were prepared by addition of cell suspension solution 100 μL per well and positive control drug solution 50 μL per well, the drug test groups were prepared by addition of cell suspension solution 100 μL per well and test compound solution 50 μL per well, and there were 5 different concentrations of drug in the positive control group and the drug test group respectively: 0.01, 0.1, 1, 10, 100 μmol·L^−1, each concentration was established with 3 parallel wells. After the drug was added, the 96-well plate was incubated for 48 h at 37° C. in a CO2 incubator of 5% CO2 and saturation humidity. Upon completion of the incubation, 20 μL MTT solution (concentration was 5 mg/mL) was added to each well and incubated for an additional 4 h, and after the 96-well plate was centrifuged at 2000 rpm for 30 min, medium of each well was suck out carefully and removed and 100 μL DMSO was added instead, followed by vibrating on a tablet shaker for 15 min to re-dissolve formazan crystals completely. OD value of each well was measured at 570 nm wavelength using an enzyme-linked immunosorbent assay reader to calculate cellular proliferation inhibitory ratio of each drug in different concentrations. And half-inhibitory concentration (IC50) was calculated using statistical software SPSS 16.0, wherein the cellular proliferation inhibitory ratio can be calculated as following equation: […]

In data set [4] the test system is human leukemia cell line K562. As to the kind of experiment: MTT proliferation inhibition, K562. The class given is cell-based. As for the experimental part:
as §1

Data set [5] relates to human liver cancer cell line H7402. As to the kind of experiment: MTT proliferation inhibition, H7402. The class given is cell-based. The method, then: as §1
In data set [6] the test system is human breast cancer cell line MCF-7. As to the kind of experiment: MTT proliferation inhibition, MCF-7. It is filed as cell-based. The method, then: as §1
Data set [7] has as its system cell line Hela. As to the kind of experiment: MTT proliferation inhibition, Hela. The class given is cell-based. The conditions noted are these: 48 h. As for the experimental part: as §1
Data set [8] has as its system clear-cell ovarian carcinoma cell line ES-2. As to the kind of experiment: MTT proliferation inhibition, ES-2. It is filed as cell-based. The conditions noted are these: 48 h. As for the experimental part:
as §1

The test system of data set [9] is 7 cell lines (ES-2, K562, PC-3, MCF-7, Hela, H7402, 3-AO). As to the kind of experiment: MTT proliferation inhibition, all 7 tumor cell lines (summary in words). The class given is cell-based. The method, then: as §1
The test system of data set [10] is human prostate cancer cell line PC-3. As to the kind of experiment: MTT proliferation inhibition, PC-3. It is filed as cell-based. The note with it: 48 h. The method, then:
as §1

A word on the IC50: it is the concentration needed to halve the response being measured. Turning to `CC(C)C[C@H](NC(=O)[C@@H](O)[C@H](N)Cc1ccccc1)C(=O)N[C@@H](C)C(=O)OCn1cc(F)c(=O)[nH]c1=O.Cl` [BC-03, (S)-(5-fluoro-2,4-dioxo-3,4-dihydropyrimidinyl-1(2H))methyl-2-((S)-2-((2S,3R)-3-amino-2-hydroxy-4-phenylbutanamido)-4-methylpentanamido)propanoate hydrochloride], in data set [1], the “inhibitory activity against aminopeptidase N compared with positive control ubenimex” value is on record as “much more potent than the positive control drug ubenimex” and the IC50 worked out at 0.36 µM.

As to `CC(C)C[C@H](NC(=O)[C@@H](O)[C@H](N)Cc1ccccc1)C(=O)NCCC(=O)OCn1cc(F)c(=O)[nH]c1=O` [BC-04, (5-fluoro-2,4-dioxo-3,4-dihydropyrimidinyl-1(2H))methyl-4-((S)-2-((2S,3R)-3-amino-2-hydroxy-4-phenylbutanamido)-4-methylpentanamido)propanoate hydrochloride], in [1], the “inhibitory activity against aminopeptidase N compared with positive control ubenimex” value was “much more potent than the positive control drug ubenimex” and the half-maximal inhibitory concentration (IC50) stood at 1.3 µM.

For `CC(C)C[C@H](NC(=O)[C@@H](O)[C@H](N)Cc1ccccc1)C(=O)NCCCC(=O)OCn1cc(F)c(=O)[nH]c1=O` [BC-05, (5-fluoro-2,4-dioxo-3,4-dihydropyrimidinyl-1(2H))methyl-6-((S)-2-((2S,3R)-3-amino-2-hydroxy-4-phenylbutanamido)-4-methylpentanamido)butanoate hydrochloride], in [1], the “inhibitory activity against aminopeptidase N compared with positive control ubenimex” value is recorded as “much more potent than the positive control drug ubenimex” and the concentration for half-maximal inhibition (IC50) worked out at 1.39 µM.

For the compound `CC(C)C[C@H](NC(=O)[C@@H](O)[C@H](N)Cc1ccccc1)C(=O)NCCCCCC(=O)OCn1cc(F)c(=O)[nH]c1=O` [BC-06, hydrochloride], in [1], the “inhibitory activity against aminopeptidase N compared with positive control ubenimex” value was “much more potent than the positive control drug ubenimex” and the IC50 is 4.66 µM.

Take `CC(C)C[C@H](NC(=O)[C@@H](O)[C@H](N)Cc1ccccc1)C(=O)N1CCC[C@H]1C(=O)OCn1cc(F)c(=O)[nH]c1=O` [BC-07, (S)-(5-fluoro-2,4-dioxo-3,4-dihydropyrimidinyl-1(2H))methyl-1-((S)-2-((2S,3R)-3-amino-2-hydroxy-4-phenylbutanamido)-4-methylpentanamido)-2-tetrahydropyrrolidine carboxylate hydrochloride]: in [1], the “inhibitory activity against aminopeptidase N compared with positive control ubenimex” value is “much more potent than the positive control drug ubenimex” and the half-maximal inhibitory concentration (IC50) stood at 0.15 µM. Besides, in data set [2] (8 mice, two cycles), the “Number of mice alive” value turned out to be 6. Moreover, in [2] (after two cycles), the “Tumor growth inhibition (%)” value turned out to be 43.61% and the “Tumor weight” value amounted to 0.34 ± 0.24 g. Moreover, the “Body weight(g) Beginning” value in data set [2] (beginning) came to 32.17 ± 3.86 g. For the same compound, in [2] (ending), the “Body weight(g) Ending” value was found to be 31.44 ± 5.01 g.

In general, EC50 refers to the midpoint of the concentration-response curve. A low value points to greater potency. Take `CC(C)C[C@H](NC(=O)[C@@H](O)[C@H](N)Cc1ccccc1)C(=O)ONC(N)=O` [Compound 22, (2S,3R)-3-amino-2-hydroxy-N—((S)-4-methylvaleryl)oxy)ureido)-4-phenylbutanamide hydrochloride]: the EC50 in data set [3] (Homo sapiens) worked out at 9.06 µM; in data set [4] (Homo sapiens, K562, 48 h), 6.52 µM; in data set [5] (Homo sapiens, H7402, 48 h) it was 7.98 µM; in data set [6] (Homo sapiens, MCF7, 48 h), 6.74 µM; in data set [7] (Homo sapiens) it was 5.55 µM; in data set [8] (Ovarian carcinoma cell), 5.66 µM. Moreover, in [10] (Homo sapiens), the EC50 amounted to 13.3 µM. Besides, the “inhibitory activity against aminopeptidase N compared with positive control ubenimex” value in data set [1] is on record as “comparable activity with ubenimex”. In addition, the IC50 in data set [1] is 2.92 µM. Further, the “anti-proliferation effect against all the tumor cells” value in data set [9] was “obvious anti-proliferation effect”. Also, the “proliferation inhibition activity compared with 5-FU” value in [9] was “much more potent than 5-FU”.

With `CC(C)C[C@H](NC(=O)[C@@H](O)[C@H](N)Cc1ccccc1)C(=O)O` [ubenimex, Ubenimex, reference compound], the EC50 in [3] (Homo sapiens) is above 400 µM; in data set [4] (Homo sapiens, K562, 48 h) it was above 400 µM; in data set [5] (Homo sapiens, H7402, 48 h), 189 µM; in [6] (Homo sapiens, MCF7, 48 h), 32.7 µM; in data set [7] (Homo sapiens), 79.6 µM; in data set [8] (Ovarian carcinoma cell), above 400 µM. For the same compound, in [10] (Homo sapiens), the EC50 is above 400 µM.

As to “(S)-2-(4-(6-(5-(2-chloro-6-methylphenyl)-2-thiazolylcarbonyl amino)-2-methyl-4-pyrimidinyl)-1-piperazinyl)ethyl-2-((2S,3R)-3-amino-2-hydroxy-4-phenylbutyryl)-4-methylpentanoate hydrochloride [Compound 32]”, the EC50 in data set [3] came out at 4.89 µM; in data set [4] (48 h), 6.33 µM; in data set [5] (48 h) it was 6.75 µM; in data set [6] (48 h), 3.65 µM; in data set [7], 3.23 µM; in [8] it was 6.45 µM. In [10], the concentration for a half-maximal effect (EC50) worked out at 14.1 µM. The “inhibitory activity against aminopeptidase N compared with positive control ubenimex” value in data set [1] is “comparable activity with ubenimex”. The IC50 in data set [1] is 7.88 µM. Also, the “anti-proliferation effect against all the tumor cells” value in [9] was “obvious anti-proliferation effect”. Moreover, the “proliferation inhibition activity compared with 5-FU” value in [9] is reported as “much more potent than 5-FU”.
